From article PMC11555678, “Improved Broad Spectrum Antifungal Drug Synergies with Cryptomycin, a Cdc50-Inspired Antifungal Peptide” (ACS Infectious Diseases, 2024)
≈ marks a conversion by molar mass, not a printed value. Where two headings read alike, the source gives them in different places. Square brackets hold non-standard residues; d marks the D form. Peptide text beside a SMILES is read from it. * marks the point of attachment. Myristoyl = CCCCCCCCCCCCCC(=O)*; Orn = NCCC[C@H](N)C(=O)O

Assays:
C. albicans SC5413 [1] = experiment: microbe, parasite or virus in culture; assay type: cell-based, Candida albicans
Protocol: (§1) All microdilution assays with fungi were carried out in accordance with CLSI protocols from M27 for yeasts and M38 for filamentous fungi, respectively, unless otherwise specified.[64],[65] Briefly, 96-well plates were charged with RPMI1640 media, with operating volume in the first column, 200 μL, and half operating volume, 100 μL, in the remaining wells. Drug stock solution in DMSO was aliquoted into the first well in each row. Half of the volume in the dosed well was serially diluted 2-fold until column 11. Column 11 was used as the negative growth control, and column 12 was used as the positive growth control. ON yeast cultures in YPD were washed twice in DD-H2O, resuspended in PBS, and adjusted to 5000 cfu/mL in RPMI. The 96-well plate was inoculated with 100 μL aliquots of cell suspension per well. Plates were incubated at 37 °C for 2 days.

C. neoformans H99 = assay type: cell-based, Cryptococcus neoformans; conditions: for MIC of antifungal in combination with (FITC)KKOO / MIC of antifungal in combination with KKOO / MIC of antifungal in combination with KKOO-NH2: RPMI1640, 37 °C; for MIC of antifungal in combination with KKOO / MIC of antifungal in combination with KKOO-NH2: 48 h
Protocol: as §1, with “Plates were incubated at 37 °C for 2 days.” left out
(§2) To assess drug synergy, the initial media charged to the plate contained the peptide at twice the final operating concentration; the remaining processing steps were identical to the MIC experiment. Upon addition of 100 μL of inoculant, the final operating concentration was achieved. Control MIC plates were prepared alongside drug synergy plates to account for the day-to-day variability in any individual MIC. FIC index is computed using eq 1. All MIC assays and drug synergy assays were completed with two technical replicates per 96-well plate and a minimum of two biological replicates per drug combination. If a difference in MIC between the two technical replicates on the plate were observed, only the higher concentration was reported as the MIC to reduce the possibility of type 1 error (false positive) [drawing 1] 1

C. glabrata 2001 = assay type: cell-based, Candida glabrata; conditions: RPMI1640, 37 °C, 48 h
Protocol: as §1, §2

Cg FKS1 S629P = experiment: Drug synergy (MIC in peptide-supplemented media); assay type: cell-based, Candida glabrata; conditions: RPMI1640, 37 °C, 48 h
Protocol: as §1, §2

Cg FKS2 S663P = experiment: Drug synergy (MIC in peptide-supplemented media); assay type: cell-based, Candida glabrata; conditions: RPMI1640, 37 °C, 48 h
Protocol: as §1, §2

C. albicans SC5413 [2] = assay type: cell-based, Candida albicans; conditions: RPMI1640, 37 °C, 48 h; for MIC of antifungal in combination with KKOO: azole MICs unclear (intermediate phenotype); for MIC of antifungal in combination with KKOO-NH2: azole MICs could not be determined (intermediate phenotype)
Protocol: as §1, §2

A. fumigatus AF293 = experiment: Drug synergy (MIC in peptide-supplemented media); assay type: cell-based, Aspergillus fumigatus; conditions: RPMI1640, 37 °C, 48 h, CAS: paradoxical growth; for MIC of antifungal in combination with KKOO: MIC = <20% growth; for MIC of antifungal in combination with KKOO-NH2: MIC = well with <20% growth
Protocol: as §1, §2

`C[C@@H]1[C@H](O)[C@@H](C)/C=C/C=C/C=C/C=C/C=C/C=C/C=C/[C@H](O[C@@H]2O[C@H](C)[C@@H](O)[C@H](N)[C@@H]2O)C[C@@H]2O[C@](O)(C[C@@H](O)C[C@@H](O)[C@H](O)CC[C@@H](O)C[C@@H](O)CC(=O)O[C@H]1C)C[C@H](O)[C@H]2C(=O)O` [AMB, amphotericin B] was tested, and the MIC (C. albicans SC5413 [1]; Candida albicans, SC5413, compound alone, RPMI1640, 37 °C, 48 h, read-out: MIC) was 1 µg/mL (≈ 1.08 µM), the “MIC of antifungal in combination with (FITC)KKOO” value (from here on “MIC of antifungal … (FITC)KKOO”) (C. neoformans H99; +0 μg/mL (FITC)KKOO) was 0.5 µg/mL and the “MIC of antifungal in combination with KKOO” value (C. neoformans H99; +0 μg/mL KKOO (control)) was 0.5 µg/mL. For the same molecule, the “MIC of antifungal in combination with KKOO-NH2” value (shortened to “MIC … with KKOO-NH2”) (C. neoformans H99; +0 μg/mL KKOO-NH2 (control)) was 0.5 µg/mL, the “MIC … with KKOO-NH2” value (C. neoformans H99; +1 μg/mL KKOO-NH2) was 0.062 µg/mL and the “MIC of antifungal in combination with KKOO” value (C. neoformans H99; +1 μg/mL KKOO) was 0.25 µg/mL. For the same molecule, the “MIC … with KKOO-NH2” value (C. neoformans H99; +2 μg/mL KKOO-NH2) was 0.062 µg/mL, the “MIC of antifungal in combination with KKOO” value (C. neoformans H99; +2 μg/mL KKOO) was 0.062 µg/mL and the “MIC of antifungal … (FITC)KKOO” value (C. neoformans H99; +4 μg/mL (FITC)KKOO) was 0.125 µg/mL. The “MIC … with KKOO-NH2” value (C. neoformans H99; +4 μg/mL KKOO-NH2) was 0.031 µg/mL, the “MIC of antifungal in combination with KKOO” value (C. neoformans H99; +4 μg/mL KKOO) was 0.062 µg/mL and the “MIC of antifungal … (FITC)KKOO” value (C. neoformans H99; +8 μg/mL (FITC)KKOO) was 0.062 µg/mL. For the same molecule, the “MIC of antifungal in combination with KKOO” value (C. neoformans H99; +8 μg/mL KKOO) was 0.062 µg/mL, the “reduction of MIC of antifungal” value (C. neoformans H99; in the presence of 1 μg/mL KKOO-NH2, 48 h) was 8 fold and the “reduction of MIC of antifungal” value (C. neoformans H99; in the presence of 4 μg/mL (FITC)KKOO) was 4 fold. For the same molecule, the “MIC of antifungal in combination with KKOO” value (C. glabrata 2001; +0 μg/mL KKOO (control)) was 1 µg/mL, the “MIC … with KKOO-NH2” value (C. glabrata 2001; +0 μg/mL KKOO-NH2 (control)) was 1 µg/mL and the “MIC … with KKOO-NH2” value (C. glabrata 2001; +1 μg/mL KKOO-NH2) was 0.5 µg/mL. For the same molecule, the “MIC of antifungal in combination with KKOO” value (C. glabrata 2001; +1 μg/mL KKOO) was 0.5 µg/mL, the “MIC … with KKOO-NH2” value (C. glabrata 2001; +2 μg/mL KKOO-NH2) was 0.25 µg/mL and the “MIC of antifungal in combination with KKOO” value (C. glabrata 2001; +2 μg/mL KKOO) was 0.25 µg/mL. The “MIC … with KKOO-NH2” value (C. glabrata 2001; +4 μg/mL KKOO-NH2) was 0.25 µg/mL, the “MIC of antifungal in combination with KKOO” value (C. glabrata 2001; +4 μg/mL KKOO) was 0.25 µg/mL and the “MIC of antifungal in combination with KKOO” value (C. glabrata 2001; +8 μg/mL KKOO) was 0.125 µg/mL. The “MIC of antifungal in combination with KKOO” value (Cg FKS1 S629P; +0 μg/mL KKOO (control)) was 1 µg/mL, the “MIC … with KKOO-NH2” value (Cg FKS1 S629P; +0 μg/mL KKOO-NH2 (control)) was 0.5 µg/mL and the “MIC … with KKOO-NH2” value (Cg FKS1 S629P; +1 μg/mL KKOO-NH2) was 0.25 µg/mL. The “MIC of antifungal in combination with KKOO” value (Cg FKS1 S629P; +1 μg/mL KKOO) was 0.5 µg/mL, the “MIC … with KKOO-NH2” value (Cg FKS1 S629P; +2 μg/mL KKOO-NH2) was 0.125 µg/mL and the “MIC of antifungal in combination with KKOO” value (Cg FKS1 S629P; +2 μg/mL KKOO) was 0.25 µg/mL. The “MIC … with KKOO-NH2” value (Cg FKS1 S629P; +4 μg/mL KKOO-NH2) was 0.062 µg/mL, the “MIC of antifungal in combination with KKOO” value (Cg FKS1 S629P; +4 μg/mL KKOO) was 0.25 µg/mL and the “MIC of antifungal in combination with KKOO” value (Cg FKS2 S663P; +0 μg/mL KKOO (control)) was 0.25 µg/mL. The “MIC … with KKOO-NH2” value (Cg FKS2 S663P; +0 μg/mL KKOO-NH2 (control)) was 0.25 µg/mL, the “MIC … with KKOO-NH2” value (Cg FKS2 S663P; +1 μg/mL KKOO-NH2) was 0.25 µg/mL and the “MIC of antifungal in combination with KKOO” value (Cg FKS2 S663P; +1 μg/mL KKOO) was 0.25 µg/mL. The “MIC … with KKOO-NH2” value (Cg FKS2 S663P; +2 μg/mL KKOO-NH2) was 0.062 µg/mL, the “MIC of antifungal in combination with KKOO” value (Cg FKS2 S663P; +2 μg/mL KKOO) was 0.125 µg/mL and the “MIC … with KKOO-NH2” value (Cg FKS2 S663P; +4 μg/mL KKOO-NH2) was 0.016 µg/mL. For the same molecule, the “MIC of antifungal in combination with KKOO” value (Cg FKS2 S663P; +4 μg/mL KKOO) was 0.031 µg/mL, the “MIC of antifungal in combination with KKOO” value (C. albicans SC5413 [2]; +0 μg/mL KKOO (control)) was 1 µg/mL and the “MIC … with KKOO-NH2” value (C. albicans SC5413 [2]; +0 μg/mL KKOO-NH2 (control)) was 1 µg/mL. The “MIC … with KKOO-NH2” value (C. albicans SC5413 [2]; +1 μg/mL KKOO-NH2) was 0.5 µg/mL, the “MIC of antifungal in combination with KKOO” value (C. albicans SC5413 [2]; +1 μg/mL KKOO) was 0.5 µg/mL and the “MIC … with KKOO-NH2” value (C. albicans SC5413 [2]; +2 μg/mL KKOO-NH2) was 0.25 µg/mL. For the same molecule, the “MIC of antifungal in combination with KKOO” value (C. albicans SC5413 [2]; +2 μg/mL KKOO) was 0.25 µg/mL, the “MIC … with KKOO-NH2” value (C. albicans SC5413 [2]; +4 μg/mL KKOO-NH2) was 0.25 µg/mL and the “MIC of antifungal in combination with KKOO” value (C. albicans SC5413 [2]; +4 μg/mL KKOO) was 0.125 µg/mL. For the same molecule, the “MIC of antifungal in combination with KKOO” value (C. albicans SC5413 [2]; +8 μg/mL KKOO) was 0.125 µg/mL, the “MIC of antifungal in combination with KKOO” value (A. fumigatus AF293; +0 μg/mL KKOO (control)) was 1 µg/mL and the “MIC … with KKOO-NH2” value (A. fumigatus AF293; +0 μg/mL KKOO-NH2 (control)) was 1 µg/mL. For the same molecule, the “MIC … with KKOO-NH2” value (A. fumigatus AF293; +1 μg/mL KKOO-NH2) was 0.5 µg/mL, the “MIC of antifungal in combination with KKOO” value (A. fumigatus AF293; +1 μg/mL KKOO) was 0.25 µg/mL and the “MIC … with KKOO-NH2” value (A. fumigatus AF293; +2 μg/mL KKOO-NH2) was 0.25 µg/mL. For the same molecule, the “MIC of antifungal in combination with KKOO” value (A. fumigatus AF293; +2 μg/mL KKOO) was 0.25 µg/mL, the “MIC … with KKOO-NH2” value (A. fumigatus AF293; +4 μg/mL KKOO-NH2) was 0.5 µg/mL and the “MIC of antifungal in combination with KKOO” value (A. fumigatus AF293; +4 μg/mL KKOO) was 0.25 µg/mL. The “MIC … with KKOO-NH2” value (A. fumigatus AF293; +8 μg/mL KKOO-NH2) was 0.5 µg/mL.
With `CCCCCCCCCCCCCC(=O)N[C@@H](Cc1c[nH]c2ccccc12)C(=O)NCC(=O)NCC(=O)N[C@H](C(=O)N[C@@H](CCCN)C(=O)N[C@@H](CCCN)C(=O)N[C@@H](CC(N)=O)C(=O)N[C@@H](Cc1ccc(O)cc1)C(=O)N[C@@H](C)C(N)=O)[C@@H](C)CC` [KKOO-NH2] (Myristoyl-WGGI[Orn][Orn]NYA-NH2) the MIC (C. albicans SC5413 [1]; SC5413, 48 h) was 16 µg/mL (≈ 13.1 µM) and the “MIC (SAR screen peptides)” value (C. albicans SC5413 [1]; Table S1, unit and conditions not given (MICs elsewhere in μg/mL)) was 16.
